Test results from US20120157356A1, “Hydraulic fracturing with slick water from dry blends” (priority 2010, published 2012).

Assays:
Rats = details: no unit in table, b36: normally expressed as mg per kilogram of body mass; cited from earlier work
[1] = Flowability: drainage time through a wide-mouth funnel; details: dry powder flowability
From the text: Also, the powder must be flowable (low angle of repose), with the flow measured as the drainage time through a wide-mouth funnel.

[2] = Apparent density by volume increase of a dispersion of known weight of solid in mineral oil; format: physicochemical
From the text: If batch mix operations (illustrated in FIG. 1) are used so that time of mixing is not critical, particle size of the components used in the blend can be as large as 18 mesh (1.0 mm). However, if the mixing is to be based on a continuous mix process (FIG. 2), timing becomes more critical, requiring that the polymeric components disperse and begin hydration prior to reaching the well head. In this case, the particle size of the components preferably is 40 mesh (0.420 mm) or smaller, but more preferably 80 mesh (0.177 mm) or smaller. Also, it is preferred that the particle size and the apparent density of all the components be about the same (to minimize segregation during shipping and storage). Apparent densities of selected commercial components, as measured by measuring volume increase of a dispersion of a known weight of solid in mineral oil, are shown in Table 2. A dry blend preferably will be formed of components for each function in a fracturing fluid having apparent densities and particle sizes matched to the best extent possible. Inert solids, such as fumed silica, may be combined with active ingredients to form solid particles having a preferred density.

SMILES	Acute Oral Effect LD50 Rats (Rats)	Time in Minutes (drainage time through a wide-mouth funnel) [1]	Apparent Density [2]
CN1CSC(=S)N(C)C1 [Dazomet, tetrahydro-3,5-dimethyl-2H-1,3,5-thiadiazine-2-thione]	519	–	–
N.N.O=S(=O)(O)OOS(=O)(=O)O [Ammonium Persulfate]	–	0.2 min	–
C[N+](C)(C)CCO.[Cl-] [Choline Chloride]	3,400	–	–
CN1CSC(=S)N(C)C1 [Dazomet 99%]	–	–	1.111 g/mL
O=C1O[C@H]([C@H](O)CO)C([O-])=C1O.[Na+] [Sodium Erythorbate]	5,000	–	–
O=S([O-])([O-])=S.[Na+].[Na+] [Sodium Thiosulfate]	2,890	–	1.667 g/mL
Cc1cc(O)cc(C)c1Cl [PCMX]	3,830	–	–
O=S([O-])O.[Na+] [Sodium Bisulfite]	1,131	–	–
C[N+](C)(C)C.[Cl-] [Tetramethylammonium Chloride]	94	–	–
[Cl-].[K+] [Potassium Chloride]	–	0.05 min	–
